In patent US20250127741A1, “MEDICINAL COMPOSITION COMPRISING RIBOSE AND AMINO ACIDS” (MEE-HU PHARMA GMBH, priority 2021, published 2025):

Test system: resistant strain of E. Coli (O157.H7)
Test: In vivo animal study #2: granuloma pouch model in Wistar rats, bacterial counts in pouch fluid
Settings: male Wistar rats; given alone every 12 h, six doses (co-trimoxazole 30 mg/kg i.p.; inventive composition 500 mg/kg p.o.); all time intervals
Protocol: Male Wistar rats, weighing 200-250 g, were infected with a resistant strain of E. Coli (O157.H7) using the granuloma pouch model. Specifically, pouches were produced by injecting 30 ml of sterile filtered air followed by injection of 0.5 ml of 0.5% croton oil in sesame seed oil deep into the loose connective dorsal tissue. Two days later, approximately 10 ml of air were withdrawn, and after 2 more days, 2 ml of 1% peptone and 0.35% agar in saline solution were injected in the pouch. On day 10, rats were infected with 10^6 CFU of E. coli suspended in 1.5 ml of THB containing 2.5% gastric mucin and 0.35% agar.
The rats were divided in groups of five rats, and the following drugs, either alone or concurrently administered, were administered every 12 h for three consecutive days, making a total of six doses, starting 24 h after infection: co-trimoxazole (Septrin, GlaxoSmithKline) 30 mg/kg (i.p) and the inventive composition 500 mg/kg (p.o) (the 500 mg referring to the weight of the lyophilisate of Table 1 contained in the amount of mixed solution administered). […]
Samples (0.5 mL) of pouch fluid were withdrawn from each animal just before treatment (0 time), 3 h after the first dose, just before the last dose, 3 and 24 h after the last dose. […] The results represent the average values obtained from all the animals in the same group at the same intervals and expressed as log 10 CFU/ml. […]

## co-trimoxazole [cotrimoxazole]
  bacterial counts in pouch fluid, difference to control group: no significant differences
